Assay results published in patent US20260049055A1, “SOLID FORMS OF […] […] USES THEREOF” (Sensorium Therapeutics, Inc., priority 2022, published 2026).

Legend:
[1] = molecular target: sodium-dependent serotonin transporter (SERT) (Homo sapiens, UniProt P31645); conditions: reported for naturally occurring material from Sceletium tortuosum; cited from earlier work
Sequence of sodium-dependent serotonin transporter (SERT) (P31645 whole entry, species assumed): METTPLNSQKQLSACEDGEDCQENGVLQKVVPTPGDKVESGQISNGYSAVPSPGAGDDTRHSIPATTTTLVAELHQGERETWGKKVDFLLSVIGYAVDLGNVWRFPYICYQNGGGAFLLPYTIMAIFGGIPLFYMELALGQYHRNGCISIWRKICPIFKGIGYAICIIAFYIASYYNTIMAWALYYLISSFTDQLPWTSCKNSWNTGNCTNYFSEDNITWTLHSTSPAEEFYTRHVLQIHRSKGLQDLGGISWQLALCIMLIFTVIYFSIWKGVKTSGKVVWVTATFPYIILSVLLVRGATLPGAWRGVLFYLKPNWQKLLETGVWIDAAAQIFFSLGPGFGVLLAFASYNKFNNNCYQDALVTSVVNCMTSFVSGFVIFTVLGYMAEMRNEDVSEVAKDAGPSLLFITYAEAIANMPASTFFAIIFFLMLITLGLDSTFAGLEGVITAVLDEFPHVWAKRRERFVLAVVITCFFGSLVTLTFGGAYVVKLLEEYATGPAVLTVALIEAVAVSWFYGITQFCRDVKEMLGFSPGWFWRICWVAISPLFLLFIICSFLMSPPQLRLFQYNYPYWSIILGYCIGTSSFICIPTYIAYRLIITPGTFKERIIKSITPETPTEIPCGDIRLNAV

[2] = Solubility of Freeform Form A in solvents; type: physicochemical
Source text: Freeform Form A was a gum material. The material had the solubility shown below:

In the case of `COc1ccc([C@@]23CCC(=O)C[C@@H]2N(C)CC3)cc1OC` [Compound 1, (3aS,7aS)-3a-(3,4-dimethoxyphenyl)-1-methyl-2,3,4,5,7,7a-hexahydroindol-6-one], the “serotonin (5-HT) uptake inhibition, in words” value [1] is listed as “serotonin (5-HT) uptake inhibitory activity”.
In the case of `COc1ccc([C@@]23CCC(=O)C[C@@H]2N(C)CC3)cc1OC` [Freeform Form A, (3aS,7aS)-3a-(3,4-dimethoxyphenyl)-1-methyl-2,3,4,5,7,7a-hexahydroindol-6-one], the “Solubility (mg/mL)” value ([2]; solvent 1,4-Dioxane) is reported as “S > 40.0 mg/mL”, the “Solubility (mg/mL)” value ([2]; solvent 2-MeTHF) is reported as “S > 40.0 mg/mL” and the “Solubility (mg/mL)” value ([2]; solvent ACN) is reported as “S > 44.0 mg/mL”. For the same compound, the “Solubility (mg/mL)” value ([2]; solvent Acetone) was “S > 40.0 mg/mL”, the “Solubility (mg/mL)” value ([2]; solvent CPME) was “S > 40.0 mg/mL” and the “Solubility (mg/mL)” value ([2]; solvent DCM) was “S > 42.0 mg/mL”. The “Solubility (mg/mL)” value ([2]; solvent EtOH) was “S > 42.0 mg/mL”, the “Solubility (mg/mL)” value ([2]; solvent H2O) was “S > 42.0 mg/mL” and the “Solubility (mg/mL)” value ([2]; solvent IPA) was “S > 38.0 mg/mL”. The “Solubility (mg/mL)” value ([2]; solvent IPAc) was “S > 36.0 mg/mL”, the “Solubility (mg/mL)” value ([2]; solvent MIBK) was “S > 38.0 mg/mL” and the “Solubility (mg/mL)” value ([2]; solvent MTBE) was “S > 40.0 mg/mL”. The “Solubility (mg/mL)” value ([2]; solvent MeOH) was “S > 36.0 mg/mL” and the “Solubility (mg/mL)” value ([2]; solvent THF) was “S > 44.0 mg/mL”.
